{"source": "paper PMC6063804", "about": "(EJNMMI Research, 2018)", "key": {"[1]": {"system": "ion channel binding site of NMDA receptors", "experiment": "[^18F]PK-209 brain PET, test–retest and kinetic modeling", "format": "in vivo, human", "details": "for K i: net influx rate, individual subjects S1–S5", "protocol": "In total, 20 PET scans were acquired on a Gemini TF-64 PET/CT scanner (Philips Medical Systems, Cleveland, OH, USA). Five subjects underwent [^18F]PK-209 test–retest (TRT) scans 31–61 days apart over a period of 211 days. Another five subjects underwent baseline and ketamine scans 13–161 days apart over a period of 258 days. At the start of each scan [^18F]PK-209 was injected as an intravenous bolus with a mean injected activity of 187 ± 7 MBq. All scans were performed between 12:00 and 15:00 h to minimize diurnal variation. Duration of daylight on each scan day was calculated to investigate seasonal changes in tracer binding. Dynamic PET data were acquired for 120 min and binned into 25 time frames (1 × 15, 3 × 5, 3 × 10, 4 × 60, 2 × 150, 2 × 300, 10 × 600 s). PET was followed by a low-dose CT (30 mAs, 120 kVp) for attenuation correction and localization. Data were reconstructed using a three-dimensional row action maximum likelihood reconstruction algorithm (3-D RAMLA). Acquired PET data were normalized and corrected for dead time, randoms, scatter, attenuation, and decay.\nPrior to the PET studies, structural three-dimensional coronal T1-weighted magnetic resonance images (MRI) were acquired for all subjects on a 1.5T Sonata scanner (Siemens Medical Solutions, Erlangen, Germany) with 160 coronal slices using echo time 3.97 ms, repetition time 2700 ms, flip angle 8°, and voxel size 1.0 × 1.5 × 1.0 mm^3. Subject motion was checked by visual inspection of the alignment of intrasubject PET frames, and no frames were excluded due to excessive movement. T1-weighted MRI scans were co-registered to an average of the PET frames from ~ 4–70 min p.i. using VINCI software. The co-registered MRI scans were segmented into gray matter (GM), white matter, and extra-cerebral fluid, using PVE-lab. Subsequently, 68 regions of interest (ROIs), including whole brain, were derived from the Hammers atlas and used to extract GM time-activity curves (TACs). As a last step, the TACs of 60 out of the 67 ROIs were redefined into nine volume-weighted ROIs by combining the radioactivity at each timepoint according to the equation Bq¯=∑iαi×Bqi/∑iαi , where αi is the volume (in mm^3) of region i, and Bqi the counts per mm^3 of region i. The selection of ROIs was based on the widespread NMDA-R availability in the brain: frontal, temporal, occipital, and parietal cortices; hippocampus; thalamus; insula; brainstem; dorsal striatum; and cerebellum, as well as whole brain GM from the Hammers atlas. Standardized uptake values (SUV; equalling measured activity divided by injected dose per body weight) were calculated for whole brain GM.\nUsing the metabolite-corrected arterial plasma input function, all GM TACs were fitted to single-tissue (1T2k), two-tissue irreversible (2T3k), and reversible (2T4k) compartmental models, both with and without an additional parameter for fractional blood volume (VB). The non-metabolite-corrected arterial whole blood curve was used as input function for VB. The optimal tracer kinetic model for describing in vivo kinetics of [^18F]PK-209 was determined according to the Akaike Information Criterion (AIC). Depending on the model preference, outcome measures were the net influx constant (Ki = K1 k3/(k2 + k3)) or the distribution volume (VT=K1/k2(1+k3/k4)) . For subsequent group level analysis (e.g., TRT variability and ketamine effects), all scans were analyzed using the same, most preferred, tracer kinetic model. Non-displaceable distribution volumes (VND = K1/k2) as well as K1 and k3 values are also reported separately.\nThe absolute percentage TRT variability of kinetic parameters between test and retest scans was calculated using the equation TRT variability = 2 · (ρretest − ρtest)/(ρtest + ρretest) · 100, where ρ is the kinetic parameter of interest. The between-subject coefficient of variation was calculated as the standard deviation divided by the sample mean · 100. […]"}, "ion channel of NMDA-R": {"target": "ion channel of NMDA-R", "design": "method as in PMID 25648682", "details": "preclinical; read-out: apparent affinity against [^3H]MK-801 (Ki); cited from earlier work"}, "[2]": {"details": "ex vivo rodent, cited from earlier work"}}, "note": "“And” between values parts separate entries of the source, which are not always exact repeats. Equal entries are not always repeated. Where two headings read alike, the source gives them in different places.", "data": [{"smiles": "CSc1ccc(Cl)c(NC(=N)N(C)c2cccc(OC[18F])c2)c1", "note": "[[^18F]PK-209, 3-(2-chloro-5-(methylthio)phenyl)-1-(3-([^18F]fluoromethoxy)phenyl)-1-methylguanidine]", "values": [{"measurement": "Mean test K i", "setting": "[1]; 2T3k_VB, population IF", "value": 0.0152, "unit": "min⁻¹"}, {"measurement": "Mean retest K i", "setting": "[1]; 2T3k_VB, single scan IF", "value": 0.0143, "unit": "min⁻¹"}, {"measurement": "Mean test K i", "setting": "[1]; 2T3k_VB, single scan IF", "value": 0.0183, "unit": "min⁻¹"}, {"measurement": "Mean retest K 1", "setting": "[1]; human, in vivo", "value": 0.426, "unit": "mL · cm^3 · min^−1"}, {"measurement": "Mean retest V ND", "setting": "[1]; human, in vivo", "value": 7.34}, {"measurement": "Mean retest k 3", "setting": "[1]; human, in vivo", "value": 0.0021, "unit": "min⁻¹"}, {"measurement": "Mean test K 1", "setting": "[1]; human, in vivo", "value": 0.473, "unit": "mL · cm^3 · min^−1"}, {"measurement": "Mean test K i", "setting": "[1]; human, in vivo", "value": 0.0161, "unit": "min⁻¹"}, {"measurement": "Mean test V ND", "setting": "[1]; human, in vivo", "value": 9.09}, {"measurement": "Mean test k 3", "setting": "[1]; human, in vivo", "value": 0.0021, "unit": "min⁻¹"}, {"measurement": "peak uptake SUV", "setting": "[1]; human, in vivo", "value": "3.6-5.7"}, {"measurement": "time of peak uptake", "setting": "[1]; human, in vivo", "value": "around 10 min"}, {"measurement": "whole brain SUV90–120", "setting": "[1]; human, in vivo", "value": 1.64}, {"measurement": "brain activity as % of the peak", "setting": "[1]; human, in vivo, 120 min", "value": "25-40%"}, {"measurement": "defluorination (radioactivity uptake in jaw and skull)", "setting": "[1]; in vivo", "value": "no defluorination"}, {"measurement": "K i", "setting": "[1]; 2T3k_VB, population IF, retest scan", "value": 0.0201, "unit": "min⁻¹"}, {"measurement": "K i", "setting": "[1]; 2T3k_VB, population IF, test scan", "value": "0.0147 min⁻¹ and 0.0193 min⁻¹"}, {"measurement": "K i", "setting": "[1]; 2T3k_VB, single scan IF, retest scan", "value": "0.0182 min⁻¹ and 0.0152 min⁻¹"}, {"measurement": "K i", "setting": "[1]; 2T3k_VB, within-subject IF, retest scan", "value": 0.0162, "unit": "min⁻¹"}, {"measurement": "K i", "setting": "[1]; 2T3k_VB, within-subject IF, test scan", "value": 0.0118, "unit": "min⁻¹"}, {"measurement": "whole brain SUV90–120", "setting": "[1]; test scans, average", "value": 1.68}, {"measurement": "K i", "setting": "ion channel of NMDA-R", "value": 0.018, "unit": "µM"}, {"measurement": "non-polar metabolite fraction in brain", "setting": "[2]; 15 min p.i.", "value": 18, "unit": "%"}, {"measurement": "non-polar metabolite fraction in brain", "setting": "[2]; 60 min p.i.", "value": 25, "unit": "%"}, {"measurement": "polar metabolites, contribution to total brain radioactivity", "setting": "[2]; 60 min p.i.", "value": 4, "unit": "%"}]}]}
